Data set [1] has as its system Saccharomyces cerevisiae mip1^G651S yeast strain. Put plainly: Inhibition of growth (MIC) / maximum tolerated concentration in yeast culture (DO600 after 24 h). The class given is cell-based. Particulars: 1-512 μM tested. The method, then:
From o/n pre-culture in selective medium (SC-URA, 2% ethanol (v/v)), 50 mL of rich YPD medium (1% Yeast Extract, 0.5% Bacto Peptone, 2% Glucose) were seeded at a DO600 of 0.05/mL. The 50 mL of culture were distributed in a series of ten tubes on the basis of 2 mL of culture/tube, with 4 mL of culture being placed in the last tube. […] From this tube (tube 1), 2 mL of culture were placed into tube 2. Tube 2 contained 4 ml of culture and clofilium tosylate at a concentration of 256 μM. 2 mL of tube 2 were added to tube 3, and so on. Each tube contained the drug at a concentration equal to half that of the previous tube. Two controls were provided—without clofilium tosylate and with DMSO (the volume being the same as that used to dilute the clofilium tosylate). The cultures were incubated at 28° C. with stirring for 24 hours, and the optical density (DO600) was measured.

Data set [2] deals with wild-type N2 BRISTOL line. The settings on record: Caenorhabditis elegans, in vivo, 4 days. The protocol:
A series of NGM dishes containing clofilium tosylate at concentrations of 1 μM, 5 μM, 10 μM, 50 μM, 100 μM or 200 μM were prepared (three dishes for each concentration). Between 30 and 40 synchronised L1 larvae of the wild-type N2 BRISTOL line or mutated VC1224 line (polg-1(ok1458Δ/+)/mT1 II; +/mT1 [dpy-10(el28)] II), these being nematodes carrying a heterozygous deletion of 2149 bp in the sequence encoding the polg-1 gene, were deposited on each of these dishes.

Data set [3] deals with fibroblasts from a patient with a mutation on each allele of the POLG gene. The data set is described as follows: Amount of mtDNA (qPCR) in patient fibroblasts, cell growth conditions. The format is cell-based, human. The settings on record: 2.5 μM, DMEM high glucose, harvested at 100% confluence. The method, then: Skin fibroblasts from the control and from the patient were cultured to 100% confluence in a complete Dulbecco's Modified Eagle Medium (DMEM) high glucose medium (4.5 g/L of D-glucose, 110 mg/L sodium pyruvate, 10% foetal bovine serum, 1% penicillin/streptomycin from the stock solution containing 10,000 I.U. penicillin and 10,000 μg/mL streptomycin) at 37° C. under 5% CO2. At confluence, the cultures were trypsinised and placed back in culture at 30% confluence in a complete DMEM high glucose medium supplemented with either 0.1% DMSO or with 2.5 μM clofilium tosylate. They were incubated at 37° C. under 5% CO2 and harvested at 100% confluence. The total fibroblast DNAs were extracted by the phenol-chloroform method, and the mtDNA and nuclear DNA were quantified by qPCR as described in Sarzi et al., 2007 (Sarzi, E., Bourdon, A., Chrétien, D., Zarhrate, M., Corcos, J., Slama, A., Cormier-Daire, V., De Lonlay, P., Munnich, A. and Rötig, A. (2007) Mitochondrial DNA Depletion is a Prevalent Cause of Multiple Respiratory Chain Deficiency in Childhood. J Pediatr, 105, 531-534).
Background: Quantitative PCR measures a nucleic acid by following its amplification.

For data set [4], the system named is complex I in neuronal cybrids derived from a MELAS patient (m.3243A>G tRNA^Leu mutation). Put plainly: Ratio of complex I/citrate synthase activities in MELAS neuronal cybrids. The class given is cell-based, human. The settings on record: 300 nM, 48 hours. The protocol: The mutant MELAS neuronal transmitochondrial line, which is the result of the fusion of the immortalised neuoroblastoma parental line SHSY-5Y with fibroblasts carrying the mutation m.3243A>G, was created in the laboratory of Prof. Procaccio.
Neuronal cybrid lines carrying the MELAS mutation and the parental control line were grown in sterile culture flasks and incubated at 37° C. with 5% CO2 in a medium composed of DMEM with 1.5 g/L glucose, 2 mM L-glutamine and supplemented with 10% foetal bovine serum as well as uridine (5 μg/ml) and pyruvate (10 μg/mL). […]
(§1) The MELAS neuronal cybrid line carrying the mutation seemingly in the homoplasmic state (i.e. reaching almost 100% MELAS mutation) and the SHSY-5Y parental control line were used for measurements of enzyme activities. […] These cell pellets were then analysed by spectrophotometry with measurement of the different mitochondrial biochemical activities, particularly the activity of citrate synthase and the activity of complex I of the respiratory chain. […]
The enzymatic activities were measured according to the protocol described in Medjda et al, 2009 (Medja F, Allouche S, Frachon P, Jardel C, Malgat M, Mousson de Camaret B, Slama A, Lunardi J, Mazat J P, Lombès A. Development and implementation of standardized respiratory chain spectrophotometric assays for clinical diagnosis. Mitochondrion. 2009 September; 9(5):331-9).

In data set [5] the test system is neuronal cybrids derived from a MELAS patient (m.3243A>G tRNA^Leu mutation). Put plainly: Lactate production of MELAS neuronal cybrids. Particulars: 300 nM, 48 hours. The format is cell-based, human. The method, then: The increase in the lactate production is the result of a toxicity of the drug used, but also of a mitochondrial dysfunction (energy deficiency) present in MELAS syndrome.
Neuronal cybrid lines carrying the MELAS mutation and the parental control line were grown in sterile culture flasks and incubated at 37° C. with 5% CO2 in a medium composed of DMEM with 1.5 g/L glucose, 2 mM L-glutamine and supplemented with 10% foetal bovine serum as well as uridine (5 μg/ml) and pyruvate (10 μg/mL). The cells were harvested by trypsinisation in exponential phase and were used for subsequent biochemical or molecular mitochondrial analyses.
as §1
The lactate concentration of the culture medium for neuronal cybrid and parental cells was determined by spectrophotometry using an enzymatic kit (Bohringer) on a Hitachi-Roche apparatus (Roche Diagnostics GmbH). […]

On to `CCCCCCC[N+](CC)(CC)CCCCc1ccc(Cl)cc1.Cc1ccc(S(=O)(=O)[O-])cc1` [clofilium tosylate], for which the “concentration chosen for the study in S. cerevisiae (determination of the maximum concentration tolerated)” value in data set [1] stood at 32 µM. For the same compound, in data set [2], the “concentration at which a halt in development at stage L3 or a slowdown in development was observed” value was found to be 100 µM and the “maximum concentration to use” value amounted to 50 µM. In data set [3], the “amount of mtDNA, cell growth conditions” value is given as “slightly increased”. The “activity of complex I (ratio complex I/citrate synthase)” value in data set [4] is “increased”. For the same compound, the production of lactate entry in data set [5] is reported as “without increasing”.

Values taken from patent publication US10639287B2, “Compounds for the treatment of mitochondrial diseases” (UNIVERSITE PARIS-SUD, priority 2014, dated 2020).
